According to ChEMBL document CHEMBL5678818, “Discovery of potent SOS1 inhibitors that block RAS activation via disruption of the RAS-SOS1 interaction” (Proc Natl Acad Sci U S A, 2019):

Assays:
[1] = target: Epithelial discoidin domain-containing receptor 1 (Homo sapiens) (UniProt Q08345); test: Inhibition of DDR1 (unknown origin) assessed as residual activity at 1000 nM by KINOMEscan analysis relative to control
[2] = target: T1, Phosphatidylinositol 3-kinase C2 domain-containing subunit gamma (Homo sapiens) (UniProt O75747); test: Inhibition of PIK3C2G (unknown origin) assessed as residual activity at 1000 nM by KINOMEscan analysis relative to control
T1 sequence (whole entry): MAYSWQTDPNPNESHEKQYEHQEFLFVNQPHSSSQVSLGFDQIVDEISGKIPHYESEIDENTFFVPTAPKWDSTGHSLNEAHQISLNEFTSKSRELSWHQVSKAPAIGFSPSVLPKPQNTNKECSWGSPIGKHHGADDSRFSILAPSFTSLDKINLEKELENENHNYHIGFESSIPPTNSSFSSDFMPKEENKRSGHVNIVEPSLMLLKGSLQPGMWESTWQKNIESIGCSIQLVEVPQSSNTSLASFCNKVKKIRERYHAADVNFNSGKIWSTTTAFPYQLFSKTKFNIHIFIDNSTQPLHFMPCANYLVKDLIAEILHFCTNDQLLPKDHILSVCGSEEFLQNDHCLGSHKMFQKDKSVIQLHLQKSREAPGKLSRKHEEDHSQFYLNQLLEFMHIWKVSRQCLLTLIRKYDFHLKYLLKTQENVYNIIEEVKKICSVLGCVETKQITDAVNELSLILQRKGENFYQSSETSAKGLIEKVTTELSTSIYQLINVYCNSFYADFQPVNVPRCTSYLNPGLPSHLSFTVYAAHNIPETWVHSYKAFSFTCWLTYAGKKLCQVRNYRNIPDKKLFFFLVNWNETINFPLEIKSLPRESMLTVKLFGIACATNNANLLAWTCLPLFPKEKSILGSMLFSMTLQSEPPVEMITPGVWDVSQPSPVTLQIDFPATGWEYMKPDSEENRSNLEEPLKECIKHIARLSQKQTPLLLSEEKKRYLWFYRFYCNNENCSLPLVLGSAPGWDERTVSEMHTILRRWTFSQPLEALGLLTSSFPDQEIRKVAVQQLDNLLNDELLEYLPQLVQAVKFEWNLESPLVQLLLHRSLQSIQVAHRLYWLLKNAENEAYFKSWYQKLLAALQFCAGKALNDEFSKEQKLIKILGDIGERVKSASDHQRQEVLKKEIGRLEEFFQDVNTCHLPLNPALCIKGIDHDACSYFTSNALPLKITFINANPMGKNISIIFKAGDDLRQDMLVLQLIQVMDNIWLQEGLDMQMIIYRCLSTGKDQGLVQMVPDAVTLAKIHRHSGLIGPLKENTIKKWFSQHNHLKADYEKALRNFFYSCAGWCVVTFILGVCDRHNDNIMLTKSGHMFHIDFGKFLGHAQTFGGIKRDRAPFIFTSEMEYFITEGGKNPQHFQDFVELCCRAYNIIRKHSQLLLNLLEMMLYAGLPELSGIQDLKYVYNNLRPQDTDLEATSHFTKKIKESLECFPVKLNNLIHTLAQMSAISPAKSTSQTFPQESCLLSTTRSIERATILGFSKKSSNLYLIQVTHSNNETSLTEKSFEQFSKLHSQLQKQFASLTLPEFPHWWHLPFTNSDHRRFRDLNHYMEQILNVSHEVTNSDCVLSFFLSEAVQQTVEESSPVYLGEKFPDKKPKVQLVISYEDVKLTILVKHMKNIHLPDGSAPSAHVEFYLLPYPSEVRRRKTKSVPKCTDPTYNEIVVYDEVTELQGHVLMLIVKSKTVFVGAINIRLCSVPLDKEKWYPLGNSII

[3] = target: MAP kinase-interacting serine/threonine-protein kinase 1 (Homo sapiens) (UniProt Q9BUB5); test: Inhibition of MKNK1 (unknown origin) assessed as residual activity at 1000 nM by KINOMEscan analysis relative to control
Sequence of MAP kinase-interacting serine/threonine-protein kinase 1 (Homo sapiens) (Q9BUB5 whole entry, looked up, canonical isoform): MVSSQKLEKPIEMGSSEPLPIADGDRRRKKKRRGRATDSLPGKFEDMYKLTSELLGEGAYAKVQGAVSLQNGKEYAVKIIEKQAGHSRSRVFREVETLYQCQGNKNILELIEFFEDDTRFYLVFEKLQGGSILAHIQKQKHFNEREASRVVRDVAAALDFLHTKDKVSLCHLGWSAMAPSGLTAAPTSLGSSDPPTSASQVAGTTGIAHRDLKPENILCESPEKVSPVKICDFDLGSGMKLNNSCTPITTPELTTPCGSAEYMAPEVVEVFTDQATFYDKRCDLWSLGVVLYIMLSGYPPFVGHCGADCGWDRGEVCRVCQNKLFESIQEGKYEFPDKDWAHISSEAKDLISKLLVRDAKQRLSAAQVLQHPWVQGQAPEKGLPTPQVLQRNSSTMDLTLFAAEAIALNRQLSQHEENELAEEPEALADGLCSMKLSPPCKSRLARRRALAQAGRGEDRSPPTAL

[4] = target: Casein kinase I isoform alpha (Homo sapiens) (UniProt P48729); test: Inhibition of CSNK1A1 (unknown origin) assessed as residual activity at 1000 nM by KINOMEscan analysis relative to control
Sequence of Casein kinase I isoform alpha (Homo sapiens) (P48729 2-337 limits assumed): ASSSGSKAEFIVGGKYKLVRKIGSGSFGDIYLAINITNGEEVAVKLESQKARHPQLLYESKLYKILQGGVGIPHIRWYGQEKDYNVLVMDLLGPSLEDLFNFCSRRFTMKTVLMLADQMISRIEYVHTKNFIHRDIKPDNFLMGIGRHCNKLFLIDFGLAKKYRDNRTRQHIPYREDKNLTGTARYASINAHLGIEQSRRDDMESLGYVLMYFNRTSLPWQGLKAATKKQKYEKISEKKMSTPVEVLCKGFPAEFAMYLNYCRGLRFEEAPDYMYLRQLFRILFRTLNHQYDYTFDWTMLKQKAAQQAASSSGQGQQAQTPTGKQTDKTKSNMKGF

[5] = target: Protein-tyrosine kinase 2-beta (Homo sapiens) (UniProt Q14289); test: Inhibition of PYK2 (unknown origin) assessed as residual activity at 1000 nM by KINOMEscan analysis relative to control
Sequence of Protein-tyrosine kinase 2-beta (Homo sapiens) (Q14289 whole entry, looked up): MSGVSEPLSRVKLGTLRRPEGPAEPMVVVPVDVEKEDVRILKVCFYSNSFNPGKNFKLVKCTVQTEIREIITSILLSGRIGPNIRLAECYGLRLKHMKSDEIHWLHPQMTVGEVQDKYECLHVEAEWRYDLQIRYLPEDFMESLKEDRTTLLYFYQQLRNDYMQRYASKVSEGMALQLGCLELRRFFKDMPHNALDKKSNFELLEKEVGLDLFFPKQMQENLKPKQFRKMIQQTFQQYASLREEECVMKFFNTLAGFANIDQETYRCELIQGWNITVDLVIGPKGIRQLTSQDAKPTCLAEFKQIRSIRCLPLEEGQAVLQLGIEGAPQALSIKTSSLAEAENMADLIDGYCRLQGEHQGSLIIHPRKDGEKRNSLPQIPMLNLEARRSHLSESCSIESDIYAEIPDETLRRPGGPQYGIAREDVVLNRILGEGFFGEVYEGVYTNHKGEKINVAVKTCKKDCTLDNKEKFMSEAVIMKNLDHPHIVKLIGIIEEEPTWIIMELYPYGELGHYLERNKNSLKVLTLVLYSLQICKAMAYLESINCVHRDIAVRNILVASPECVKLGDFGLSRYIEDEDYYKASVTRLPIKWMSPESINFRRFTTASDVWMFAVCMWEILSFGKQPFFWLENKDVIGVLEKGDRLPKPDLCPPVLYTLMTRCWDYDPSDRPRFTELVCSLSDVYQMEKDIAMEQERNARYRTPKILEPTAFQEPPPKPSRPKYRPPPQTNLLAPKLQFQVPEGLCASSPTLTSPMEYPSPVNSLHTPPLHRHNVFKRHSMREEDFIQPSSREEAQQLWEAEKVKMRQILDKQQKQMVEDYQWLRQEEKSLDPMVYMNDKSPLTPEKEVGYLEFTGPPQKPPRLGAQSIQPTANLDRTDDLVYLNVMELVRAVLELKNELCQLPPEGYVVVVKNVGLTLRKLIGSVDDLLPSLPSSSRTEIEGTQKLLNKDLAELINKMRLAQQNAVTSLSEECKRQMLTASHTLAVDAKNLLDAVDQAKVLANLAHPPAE

[6] = target: Serine/threonine-protein kinase 4 (Homo sapiens) (UniProt Q13043); test: Inhibition of MST1 (unknown origin) assessed as residual activity at 1000 nM by KINOMEscan analysis relative to control
[7] = target: TRAF2 and NCK-interacting protein kinase (Homo sapiens) (UniProt Q9UKE5); test: Inhibition of TNIK (unknown origin) assessed as residual activity at 1000 nM by KINOMEscan analysis relative to control
Sequence of TRAF2 and NCK-interacting protein kinase (Homo sapiens) (Q9UKE5 whole entry, looked up): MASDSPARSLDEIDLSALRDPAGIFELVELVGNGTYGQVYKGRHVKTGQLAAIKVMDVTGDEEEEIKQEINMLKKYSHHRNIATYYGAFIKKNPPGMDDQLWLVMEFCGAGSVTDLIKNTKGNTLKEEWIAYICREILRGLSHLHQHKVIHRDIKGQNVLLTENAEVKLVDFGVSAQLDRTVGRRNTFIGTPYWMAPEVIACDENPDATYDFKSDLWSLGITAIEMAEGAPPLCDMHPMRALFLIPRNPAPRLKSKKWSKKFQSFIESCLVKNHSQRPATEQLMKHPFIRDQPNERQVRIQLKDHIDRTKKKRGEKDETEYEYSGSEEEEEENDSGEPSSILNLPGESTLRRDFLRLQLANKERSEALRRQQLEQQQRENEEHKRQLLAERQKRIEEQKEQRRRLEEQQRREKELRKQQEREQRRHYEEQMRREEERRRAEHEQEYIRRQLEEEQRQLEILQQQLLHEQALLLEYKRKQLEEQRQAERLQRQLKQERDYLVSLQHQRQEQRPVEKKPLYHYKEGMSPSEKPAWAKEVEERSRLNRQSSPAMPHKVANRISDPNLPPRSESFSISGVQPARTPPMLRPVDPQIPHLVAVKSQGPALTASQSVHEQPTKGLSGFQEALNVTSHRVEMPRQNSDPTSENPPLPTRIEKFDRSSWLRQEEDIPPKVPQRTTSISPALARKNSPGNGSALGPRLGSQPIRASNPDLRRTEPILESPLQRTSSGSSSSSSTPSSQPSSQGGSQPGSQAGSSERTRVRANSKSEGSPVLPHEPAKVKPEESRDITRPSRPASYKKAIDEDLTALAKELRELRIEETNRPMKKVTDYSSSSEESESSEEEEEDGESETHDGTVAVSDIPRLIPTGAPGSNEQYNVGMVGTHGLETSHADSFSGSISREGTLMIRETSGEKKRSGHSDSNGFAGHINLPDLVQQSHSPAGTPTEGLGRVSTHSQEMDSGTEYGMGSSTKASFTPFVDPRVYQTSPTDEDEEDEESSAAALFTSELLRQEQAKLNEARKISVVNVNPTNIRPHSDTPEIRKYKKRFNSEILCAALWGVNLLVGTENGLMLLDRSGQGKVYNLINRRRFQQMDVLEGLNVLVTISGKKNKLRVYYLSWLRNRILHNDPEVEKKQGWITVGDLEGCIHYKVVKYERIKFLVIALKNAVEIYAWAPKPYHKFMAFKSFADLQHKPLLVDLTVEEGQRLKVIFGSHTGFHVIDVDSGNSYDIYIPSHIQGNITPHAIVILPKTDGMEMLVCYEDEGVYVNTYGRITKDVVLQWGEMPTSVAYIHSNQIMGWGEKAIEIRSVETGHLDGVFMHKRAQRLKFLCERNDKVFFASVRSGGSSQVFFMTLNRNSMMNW

[8] = target: Serine/threonine-protein kinase PAK 2 (Homo sapiens) (UniProt Q13177); test: Inhibition of PAK2 (unknown origin) assessed as residual activity at 1000 nM by KINOMEscan analysis relative to control
Sequence of Serine/threonine-protein kinase PAK 2 (Homo sapiens) (Q13177 whole entry): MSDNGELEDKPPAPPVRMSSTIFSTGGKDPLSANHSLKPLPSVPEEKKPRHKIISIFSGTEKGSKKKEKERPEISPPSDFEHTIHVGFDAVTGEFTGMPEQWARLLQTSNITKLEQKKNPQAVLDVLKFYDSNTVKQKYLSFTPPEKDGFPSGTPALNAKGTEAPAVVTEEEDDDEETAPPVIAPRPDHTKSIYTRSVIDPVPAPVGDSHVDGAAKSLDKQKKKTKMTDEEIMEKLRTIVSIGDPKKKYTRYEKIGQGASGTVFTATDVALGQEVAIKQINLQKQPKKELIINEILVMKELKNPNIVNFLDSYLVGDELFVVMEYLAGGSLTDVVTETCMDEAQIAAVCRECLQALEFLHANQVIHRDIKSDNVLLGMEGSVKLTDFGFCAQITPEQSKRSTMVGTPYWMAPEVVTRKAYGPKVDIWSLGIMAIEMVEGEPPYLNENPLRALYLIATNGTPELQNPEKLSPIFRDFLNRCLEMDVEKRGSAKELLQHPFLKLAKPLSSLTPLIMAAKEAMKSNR

[9] = tested on: Receptor-type tyrosine-protein kinase FLT3 (Homo sapiens), P36888 [K663Q]; test: Inhibition of FLT3 K663Q mutant (unknown origin) assessed as residual activity at 1000 nM by KINOMEscan analysis relative to control
[10] = target: Mitogen-activated protein kinase kinase kinase kinase 1 (Homo sapiens) (UniProt Q92918); test: Inhibition of HPK1 (unknown origin) assessed as residual activity at 1000 nM by KINOMEscan analysis relative to control
[11] = target: Proto-oncogene tyrosine-protein kinase receptor Ret (Homo sapiens) (UniProt P07949); test: Inhibition of RET (unknown origin) assessed as residual activity at 1000 nM by KINOMEscan analysis relative to control
Sequence of Proto-oncogene tyrosine-protein kinase receptor Ret (Homo sapiens) (P07949 whole entry): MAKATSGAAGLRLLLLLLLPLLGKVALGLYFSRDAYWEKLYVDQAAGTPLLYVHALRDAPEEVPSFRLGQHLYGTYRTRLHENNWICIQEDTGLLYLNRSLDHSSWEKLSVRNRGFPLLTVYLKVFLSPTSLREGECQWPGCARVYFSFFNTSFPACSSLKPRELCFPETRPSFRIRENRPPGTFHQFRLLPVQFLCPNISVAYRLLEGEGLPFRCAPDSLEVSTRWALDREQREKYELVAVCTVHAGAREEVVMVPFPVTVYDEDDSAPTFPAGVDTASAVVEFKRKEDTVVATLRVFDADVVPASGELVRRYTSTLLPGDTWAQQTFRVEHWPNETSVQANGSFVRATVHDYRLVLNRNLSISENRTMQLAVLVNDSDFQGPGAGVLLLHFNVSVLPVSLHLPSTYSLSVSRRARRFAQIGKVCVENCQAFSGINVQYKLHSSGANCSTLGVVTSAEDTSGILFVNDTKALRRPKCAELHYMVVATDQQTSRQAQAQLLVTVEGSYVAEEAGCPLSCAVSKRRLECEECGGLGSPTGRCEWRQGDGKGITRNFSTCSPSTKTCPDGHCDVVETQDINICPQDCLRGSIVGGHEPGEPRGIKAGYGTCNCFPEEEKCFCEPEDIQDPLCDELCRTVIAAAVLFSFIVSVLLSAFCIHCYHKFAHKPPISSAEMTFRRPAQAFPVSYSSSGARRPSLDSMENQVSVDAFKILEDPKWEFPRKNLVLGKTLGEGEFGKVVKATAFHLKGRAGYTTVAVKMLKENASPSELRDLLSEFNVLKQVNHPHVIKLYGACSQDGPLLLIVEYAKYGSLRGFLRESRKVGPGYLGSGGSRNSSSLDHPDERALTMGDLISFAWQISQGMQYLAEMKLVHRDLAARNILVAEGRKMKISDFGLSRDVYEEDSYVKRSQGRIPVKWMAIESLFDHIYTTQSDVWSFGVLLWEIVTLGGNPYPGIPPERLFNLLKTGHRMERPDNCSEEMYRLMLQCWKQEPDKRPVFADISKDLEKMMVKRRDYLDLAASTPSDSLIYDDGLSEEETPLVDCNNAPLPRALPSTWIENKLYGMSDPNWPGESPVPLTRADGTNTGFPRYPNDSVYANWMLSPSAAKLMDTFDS

[12] = target: Calcium/calmodulin-dependent protein kinase type 1 (Homo sapiens) (UniProt Q14012); test: Inhibition of CAMK1 (unknown origin) assessed as residual activity at 1000 nM by KINOMEscan analysis relative to control

Compound | Activity [1] [%] | Activity [2] [%] | Activity [3] [%] | Activity [4] [%] | Activity [5] [%] | Activity [6] [%] | Activity [7] [%] | Activity [8] [%] | Activity [9] [%] | Activity [10] [%] | Activity [11] [%] | Activity [12] [%]
COc1cc2ncnc(N[C@H](C)c3cccc4ccccc34)c2cc1OC | 100 | 35 | 56 | 96 | 100 | 99 | 100 | 82 | 96 | 100 | 92 | 100
COc1cc2nc(C)nc(N[C@H](C)c3cccc(-c4cn[nH]c4)c3)c2cc1OC | 95 | 87 | 100 | 76 | 38 | 97 | 87 | 67 | 90 | 97 | 94 | 73
